Results reported in paper PMC4583781, “Heteropentanuclear Oxalato-Bridged nd–4f (n=4, 5) Metal Complexes with NO Ligand: Synthesis, Crystal Structures, Aqueous Stability and Antiproliferative Activity” (Chemistry (Weinheim an Der Bergstrasse, Germany), 2015).

How the values were obtained:
[1] = tested on: DLD-1 colon cancer model; set-up: method as in PMID 16343446, PMID 17445775; conditions: cited from earlier work
[2] = tested on: HeLa cells (human cervical carcinoma); assay: MTT assay, antiproliferative activity in HeLa cells; format: cell-based; conditions: 48 h treatment, 3000 cells per well, read-out: IC50 HeLa (3000 c per w)
Procedure: (§1) Human cervical carcinoma (HeLa), human alveolar basal adenocarcinoma (A549), and normal human fetal lung fibroblast cell line (MRC-5) were maintained as monolayer culture in the Roswell Park Memorial Institute (RPMI) 1640 nutrient medium (Sigma Chemicals Co, USA). RPMI 1640 nutrient medium was prepared in sterile ionized water, supplemented with penicillin (192 IU mL^−1), streptomycin (200 μg mL^−1), 4-(2-hydroxyethyl)piperazine-1-ethanesulfonic acid (HEPES) (25 mM), L-glutamine (3 mM) and 10 % of heat-inactivated fetal calf serum (FCS; pH 7.2). The cells were grown at 37 °C in 5 % CO2 and humidified air atmosphere, by twice weekly subculture.
(§2) Antiproliferative activity of the ruthenium and osmium complexes was determined using 3-(4,5-dimethylthiazol-yl)-2,5-diphenyltetrazolium bromide (MTT, Sigma–Aldrich) assay.[49] Cells were seeded into 96-well cell culture plates (Thermo Scientific Nunc), at a cell density of 3000 cells per well (HeLa), 7000 cells per well (A549), and 5000 cells per well (MRC-5), in 100 μL of culture medium. After 24 h of growth, cells were exposed to the serial dilutions of the tested complexes. Complexes were dissolved in 1 % DMSO: complex 1 at a concentration of 4 mM, complexes 2–5 at a concentration of 1 mM, complexes 6–9 at a concentration of 0.6 mM, as stocks immediately prior use, and afterwards diluted with nutrient medium to desired final concentrations (in range up to 200 μM). Each concentration was tested in triplicate. After incubation periods of 48 h, 20 μL of MTT solutions (5 mg mL^−1 in phosphate buffer solution, pH 7.2) were added to each well. Samples were incubated for 4 h at 37 °C, with 5 % CO2 in a humidified atmosphere. Formazan crystals were dissolved in 100 μL of 10 % sodium dodecyl sulfate (SDS). Absorbances were recorded after 24 h, on an ELISA reader (ThermoLabsystems Multiskan EX 200–240 V), at the wavelength of 570 nm. The IC50 values, defined as the concentrations of the compound causing 50 % cell growth inhibition, were estimated from the dose-response curves.
(§3) The antiproliferative activity of the ruthenium and osmium lanthanide complexes 1–9 was evaluated for 48 h of continuous drug action, using colorimetric MTT assay. The study was performed in two human neoplastic cell lines (HeLa, A549), and human fetal lung fibroblast cell line (MRC-5), which was used as noncancerous model for in vitro toxicity evaluation. The results are shown in Table 5 in terms of IC50 values for 48 h incubation period. IC50 values are calculated as mean values obtained from two to three independent experiments and are presented with their standard deviations.

[3] = tested on: A549 cells (human alveolar basal adenocarcinoma); assay: MTT assay, antiproliferative activity in A549 cells; format: cell-based; conditions: 48 h treatment, 7000 cells per well, read-out: IC50 A549 (7000 c per w)
Procedure: as §1, §2, §3

[4] = tested on: MRC-5 cells (normal human fetal lung fibroblast); assay: MTT assay, cytotoxicity in noncancerous MRC-5 cells; format: cell-based; conditions: 48 h treatment, 5000 cells per well, read-out: IC50 MRC-5 (5000 c per w)
Procedure: as §1, §2, §3

[5] = Stability in aqueous solution by UV/Vis spectroscopy; format: physicochemical; conditions: UV/Vis spectroscopy over 96 h
Procedure: Elemental analyses were performed by the microanalytical service of the Faculty of Chemistry of the University of Vienna on a Perkin–Elmer 2400 CHN Elemental Analyzer. UV/Vis spectra were recorded at 25 °C using a Perkin–Elmer Lambda 650 spectrometer equipped with an optical cell of 1 cm path-length in the wavelength range of 200 to 800 nm in combination with a Perkin–Elmer PTP-6 Peltier System. Electrospray ionization (ESI) mass spectrometry measurements were conducted on a Bruker HCT ion trap (Bruker Daltonics GmbH) by using methanol as a solvent. MIR spectra were recorded on a Perkin–Elmer 370 FTIR 2000 instrument using an ATR (attenuated total reflection) unit in the range of 4000–400 cm^−1. Phosphorescence emission spectra were recorded with a Horiba FluoroMax-4 spectrofluorimeter and the data were processed using the FluorEssence v3.5 software package.
The stability of the heteropentanuclear complexes 5 and 9 in aqueous solution has been investigated by UV/Vis spectroscopy over 96 h.

[6] = Stability of pentanuclear assembly in aqueous solution, IR comparison of residue; format: physicochemical; conditions: aqueous solution evaporated to dryness after standing 24 h in air
Procedure: To exclude immediate dissociation of the pentanuclear assembly with release of a metal–oxalate fragment an aqueous solution of 5 was evaporated to dryness after standing for 24 h in air and the IR spectra of the residue and freshly prepared compound 5 were compared.

[7] = tested on: cellular DNA of A549 cells; assay: Ru/Os binding to cellular DNA by ICP-MS; format: cell-based, human; conditions: 6 h treatment, 0.5×IC50, ICP-MS
[8] = tested on: cellular proteins of A549 cells; assay: Ru/Os binding to cellular proteins by ICP-MS; format: cell-based, human; conditions: 24 h versus 6 h, 0.5×IC50, ICP-MS
[9] = tested on: A549 cells; assay: Total intracellular Ru/Os accumulation by ICP-MS; format: cell-based, human; conditions: 6 and 24 h, 0.5×IC50 of complexes 4 and 8, ICP-MS, Ru (4) relative to Os (8)

Compound	Efficacy against DLD-1 colon cancer model in vivo [1]	IC50 [2] [µM]	IC50 [3] [µM]	IC50 [4] [µM]	Stability in aqueous solution (change of optical spectra) [5]	IR spectra of residue versus freshly prepared compound [6]	Metal (Ru/Os) bound to cellular DNA [7]	Change of metal-protein binding with treatment prolongation [8]	Total intracellular accumulation of ruthenium versus osmium [9]
N#C[S-].N#C[S-].N#C[S-].[La+3].c1cnc2c(c1)ccc1cccnc12.c1cnc2c(c1)ccc1cccnc12.c1cnc2c(c1)ccc1cccnc12 [La(phen)3(NCS)3]	highly effective								
(nBu4N)2[RuCl3(ox)(NO)] [complex 1]		55.9 ± 5.6	55 ± 1.6	18.1 ± 6.5					
(nBu4N)5[Dy(EtOH){RuCl3(μ-ox)(NO)}4] [complex 5]		20 ± 2.1	47 ± 6.7	13.2 ± 0.4	no change in the optical spectra observed	no differences in the spectra observed			
(nBu4N)5[Gd(EtOH){RuCl3(μ-ox)(NO)}4] [complex 3]		29.1 ± 0.8	26.5 ± 4	11.1 ± 0.1					
(nBu4N)5[Tb(EtOH){RuCl3(μ-ox)(NO)4}] [complex 4]		20 ± 2.4	22.4 ± 3.1	11.9 ± 0.4			63.4(±1.8) pg metal μg^−1 DNA	increased to a great extent	five- to eightfold greater
(nBu4N)5[Y{OsCl3(μ-ox)(NO)}4] [complex 6]		152 ± 24	> 200	115 ± 10.7					
(nBu4N)5[Y{RuCl3(μ-ox)(NO)}4] [complex 2]		17.9 ± 0.4	56.3 ± 1.1	12 ± 0.3					
